The NIST ThermoML archive (doi:10.1021/je800972b)
± gives the expanded uncertainty stated by the source. Each block holds one compound with its values, some of them ahead of it.

Columns and labels:
[1] = 298.15 K; 101.33 kPa; Liquid
[2] = xn = mol fraction of the nth substance listed; conditions: 298.15 K, 101 kPa, Liquid, Vibrating tube method

SMILES: Cc1ccccc1 [toluene]
mass density [1]: 862.23 ± 0.18 kg/m3

mass density [1]: 800.61 ± 0.23 kg/m3
SMILES: CCCO [propan-1-ol]

SMILES: C=COCCC [propyl vinyl ether]
mass density [1]: 762.69 ± 0.26 kg/m3

SMILES: C=COCCC [propyl vinyl ether] + Cc1ccccc1
mass density ([2]; x1 = 0.0494): 857.3 ± 0.22 kg/m3
mass density ([2]; x1 = 0.1002): 852.46 ± 0.22 kg/m3
mass density ([2]; x1 = 0.1995): 843.05 ± 0.22 kg/m3
mass density ([2]; x1 = 0.2999): 833.4 ± 0.22 kg/m3
mass density ([2]; x1 = 0.3993): 823.66 ± 0.22 kg/m3
mass density ([2]; x1 = 0.5002): 813.73 ± 0.22 kg/m3
mass density ([2]; x1 = 0.5999): 803.77 ± 0.22 kg/m3
mass density ([2]; x1 = 0.6998): 793.65 ± 0.22 kg/m3
mass density ([2]; x1 = 0.7999): 783.69 ± 0.22 kg/m3
mass density ([2]; x1 = 0.8993): 773.56 ± 0.22 kg/m3
mass density ([2]; x1 = 0.95): 768.31 ± 0.22 kg/m3
